Data taken from the CheMixHub ionic liquid set.

Assay: xn = mol fraction of the nth substance listed

CCCCCCCCCCCCCCCC[n+]1ccccc1.O=C([O-])c1ccccc1O + O
electrical conductivity [S/m], 101 kPa
Details | 293.15 K | 298.15 K | 303.15 K | 308.15 K | 313.15 K
x1 = 7.2e-07 | 0.00046 | 0.000513 | 0.000569 | 0.000627 | 0.000668
x1 = 1.44e-06 | 0.000708 | 0.000794 | 0.000883 | 0.000973 | 0.00122
x1 = 1.98e-06 | 0.000945 | 0.00105 | 0.00117 | 0.00129 | –
x1 = 2.34e-06 | 0.00114 | 0.00128 | 0.00144 | 0.00159 | 0.00177
x1 = 2.88e-06 | 0.00129 | 0.00148 | 0.00168 | 0.00186 | –
x1 = 3.24e-06 | – | – | – | – | 0.0023
x1 = 3.42e-06 | 0.00142 | 0.00163 | 0.00186 | 0.0021 | –
x1 = 3.96e-06 | 0.00156 | 0.00178 | 0.00202 | 0.0023 | 0.00268
x1 = 4.32e-06 | 0.00167 | 0.00191 | 0.00217 | 0.00247 | –
x1 = 4.69e-06 | – | – | 0.00232 | 0.00263 | 0.003
x1 = 4.87e-06 | 0.00181 | 0.00205 | – | – | –
x1 = 5.23e-06 | 0.00187 | 0.00217 | 0.00247 | 0.0028 | –
x1 = 5.41e-06 | – | – | – | – | 0.00324
x1 = 5.59e-06 | 0.00204 | 0.00231 | 0.00261 | 0.00294 | –
x1 = 5.95e-06 | 0.00212 | 0.00242 | 0.00273 | 0.00309 | 0.00348
x1 = 6.31e-06 | 0.00224 | 0.00254 | 0.00285 | 0.00321 | –
x1 = 6.49e-06 | 0.00231 | 0.00263 | 0.00296 | 0.00333 | 0.00375
x1 = 6.85e-06 | 0.00243 | 0.00274 | 0.00307 | 0.00345 | –
x1 = 7.03e-06 | – | – | – | – | 0.00396
x1 = 7.21e-06 | 0.00251 | 0.00283 | 0.00319 | 0.00358 | –
x1 = 7.39e-06 | – | – | – | – | 0.00412
x1 = 7.75e-06 | – | – | – | – | 0.00431
x1 = 8.11e-06 | – | – | – | – | 0.00447
x1 = 8.65e-06 | – | – | – | – | 0.00464

CC(C)O + CCCCCC[n+]1ccn(C)c1.O=S(=O)([N-]S(=O)(=O)C(F)(F)F)C(F)(F)F
100 kPa, x1 = 1
Details | viscosity [mPa·s]
293.15 K | 2.42
298.15 K | 2.05
303.15 K | 1.73
308.15 K | 1.49
313.15 K | 1.34

[Cl-].[Cl-].[Co+2] + CCCCCCCC[N+](CCCCCCCC)(CCCCCCCC)CCCCCCCC.[Br-] + Cc1ccc(C(C)C)c(O)c1
296.1 K, 101.3 kPa
Details | viscosity [mPa·s]
x2 = 0.4, x1 = 0.2 | 79000
x2 = 0.4286, x1 = 0.1429 | 48000

CCCCCCCCn1cc[n+](C)c1.[Br-] + [Cl-].[Li+] + O
298.15 K, 100 kPa
Details | viscosity [mPa·s]
x2 = 0, x3 = 0.9487 | 7.96
x2 = 0.00845, x3 = 0.9403 | 7.94
x2 = 0.0171, x3 = 0.9316 | 8.68
x2 = 0.02497, x3 = 0.9237 | 10.09
x2 = 0.03315, x3 = 0.9155 | 10.9
x2 = 0.04088, x3 = 0.9078 | 12.6

O=C([O-])CC(O)(CC(=O)[O-])C(=O)[O-].[Na+].[Na+].[Na+] + CCCCCCCCCCCC[N+](C)(C)C.[Br-] + O
298.15 K, 101 kPa
Details | electrical conductivity [S/m]
x1 = 0.0001801, x2 = 6.99e-05 | 0.2684
x1 = 0.0001801, x2 = 7.929e-05 | 0.2719
x1 = 0.0001801, x2 = 8.85e-05 | 0.2754
x1 = 0.0001801, x2 = 9.753e-05 | 0.2789
x1 = 0.0001801, x2 = 0.0001069 | 0.2823
x1 = 0.0001801, x2 = 0.0001161 | 0.2857
x1 = 0.0001801, x2 = 0.0001253 | 0.2892
x1 = 0.0001801, x2 = 0.0001344 | 0.2925
x1 = 0.0001801, x2 = 0.0001434 | 0.2957
x1 = 0.0001801, x2 = 0.0001524 | 0.2987
x1 = 0.0001801, x2 = 0.0001611 | 0.3009
x1 = 0.0001801, x2 = 0.0001696 | 0.3029
x1 = 0.0001801, x2 = 0.0001784 | 0.3047
x1 = 0.0001801, x2 = 0.0001916 | 0.3068
x1 = 0.0001801, x2 = 0.0002048 | 0.3082
x1 = 0.0001801, x2 = 0.0002178 | 0.3097
x1 = 0.0001801, x2 = 0.0002306 | 0.311
x1 = 0.0001801, x2 = 0.0002434 | 0.3121
x1 = 0.0001801, x2 = 0.0002561 | 0.3132
x1 = 0.0001801, x2 = 0.0002685 | 0.3143
x1 = 0.0001801, x2 = 0.000281 | 0.3154
x1 = 0.0001801, x2 = 0.0002933 | 0.3165
x1 = 0.0001801, x2 = 0.0003055 | 0.3176
x1 = 0.0001802, x2 = 0 | 0.2438
x1 = 0.0001802, x2 = 3.07e-06 | 0.2445
x1 = 0.0001802, x2 = 6.32e-06 | 0.2456
x1 = 0.0001802, x2 = 1.391e-05 | 0.2483
x1 = 0.0001802, x2 = 2.348e-05 | 0.2516
x1 = 0.0001802, x2 = 3.251e-05 | 0.2548
x1 = 0.0001802, x2 = 4.154e-05 | 0.258
x1 = 0.0001802, x2 = 5.076e-05 | 0.2614
x1 = 0.0001802, x2 = 6.015e-05 | 0.2648
x1 = 0.001798, x2 = 0.000148 | 1.558
x1 = 0.001798, x2 = 0.0001666 | 1.562
x1 = 0.001798, x2 = 0.0001847 | 1.565
x1 = 0.001798, x2 = 0.0002029 | 1.569
x1 = 0.001798, x2 = 0.0002206 | 1.573
x1 = 0.001798, x2 = 0.0002383 | 1.576
x1 = 0.001798, x2 = 0.0002559 | 1.579
x1 = 0.001798, x2 = 0.000273 | 1.582
x1 = 0.001798, x2 = 0.0002898 | 1.585
x1 = 0.001798, x2 = 0.0003068 | 1.588
x1 = 0.001798, x2 = 0.0003234 | 1.591
x1 = 0.001798, x2 = 0.0003396 | 1.594
x1 = 0.001798, x2 = 0.0003558 | 1.597
x1 = 0.001798, x2 = 0.0003717 | 1.599
x1 = 0.001798, x2 = 0.0003855 | 1.602
x1 = 0.001798, x2 = 0.0004015 | 1.604
x1 = 0.001798, x2 = 0.000417 | 1.607
x1 = 0.001798, x2 = 0.000448 | 1.611
x1 = 0.001799, x2 = 0 | 1.541
x1 = 0.001799, x2 = 6.09e-06 | 1.538
x1 = 0.001799, x2 = 1.458e-05 | 1.538
x1 = 0.001799, x2 = 2.214e-05 | 1.539
x1 = 0.001799, x2 = 2.989e-05 | 1.54
x1 = 0.001799, x2 = 4.188e-05 | 1.542
x1 = 0.001799, x2 = 5.738e-05 | 1.543
x1 = 0.001799, x2 = 7.288e-05 | 1.544
x1 = 0.001799, x2 = 9.225e-05 | 1.547
x1 = 0.001799, x2 = 0.0001101 | 1.55
x1 = 0.001799, x2 = 0.0001291 | 1.554

CCn1cc[nH+]c1.[Cl-] + OCC(O)CO
Details | viscosity [mPa·s]
303.15 K, 100 kPa, x1 = 0.333 | 65.7

CCCC[n+]1ccn(C)c1.O=S(=O)([O-])C(F)(F)F + NCCO + O
viscosity [mPa·s], 101 kPa
Details | 293.15 K | 298.15 K | 303.15 K | 308.15 K | 313.15 K | 318.15 K | 323.15 K | 328.15 K | 333.15 K
x2 = 0.1349, x3 = 0.8555 | 4.3 | 3.656 | 3.152 | 2.758 | 2.447 | 2.198 | 2.004 | 1.847 | 1.718
x2 = 0.1564, x3 = 0.8171 | – | 5.025 | 4.267 | 3.67 | 3.186 | 2.805 | 2.511 | 2.269 | 2.073
x2 = 0.2358, x3 = 0.6935 | 11.54 | 9.48 | 7.87 | 6.611 | 5.618 | 4.823 | 4.182 | 3.665 | 3.242
